biological target: Prolyl endopeptidase (Sus scrofa, UniProt P23687); experiment: In vitro inhibitory activity against porcine prolyl oligopeptidase by using 4 mM Suc-Gly-Pro-7-amido-4-methylcoumarin as substrate (pH 7.0) at 30 degree C for 60 min
Sequence (P23687 whole entry): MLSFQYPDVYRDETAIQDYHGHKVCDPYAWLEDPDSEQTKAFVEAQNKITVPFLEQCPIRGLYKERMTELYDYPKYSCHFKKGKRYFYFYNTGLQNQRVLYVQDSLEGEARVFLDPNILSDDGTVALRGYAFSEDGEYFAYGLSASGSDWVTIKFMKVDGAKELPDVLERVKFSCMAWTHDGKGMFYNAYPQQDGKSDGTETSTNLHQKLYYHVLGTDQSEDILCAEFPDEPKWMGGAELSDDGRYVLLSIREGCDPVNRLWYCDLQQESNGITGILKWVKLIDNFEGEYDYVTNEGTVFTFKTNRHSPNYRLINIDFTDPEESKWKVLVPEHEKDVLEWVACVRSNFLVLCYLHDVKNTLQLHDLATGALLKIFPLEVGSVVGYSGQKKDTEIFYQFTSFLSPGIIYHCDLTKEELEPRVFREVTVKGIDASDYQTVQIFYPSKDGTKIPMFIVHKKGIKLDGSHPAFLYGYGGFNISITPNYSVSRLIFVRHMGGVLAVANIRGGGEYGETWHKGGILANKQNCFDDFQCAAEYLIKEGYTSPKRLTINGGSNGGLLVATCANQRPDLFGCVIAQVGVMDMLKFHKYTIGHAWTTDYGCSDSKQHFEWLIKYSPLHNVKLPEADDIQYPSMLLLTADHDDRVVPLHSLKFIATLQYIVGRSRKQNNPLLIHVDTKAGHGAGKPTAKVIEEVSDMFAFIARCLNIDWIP

First: O=C(NCc1ccccc1)[C@@H]1CCCN1C(=O)c1cccc(C(=O)N2CCC[C@H]2C(=O)N2CCCC2)c1
Second: O=C(c1ccccc1)[C@@H]1CCCN1C(=O)c1cccc(C(=O)N2CCC[C@H]2C(=O)N2CCCC2)c1
The IC50 of the first is 1.7-fold higher: 31 nM for the first, 18 nM for the second.

First: CC(=O)[C@@H]1CCCN1C(=O)c1cccc(C(=O)N2CCC[C@H]2C(=O)N2CCC[C@H]2C#N)c1
Second: CC(C)C(=O)[C@@H]1CCCN1C(=O)c1cccc(C(=O)N2CCC[C@H]2C(=O)N2CCC[C@H]2C#N)c1
The IC50 of the first is 2.6-fold higher: 4.2 nM for the first, 1.6 nM for the second.

Going from `O=C(CO)[C@@H]1CCCN1C(=O)[C@@H]1CCCN1C(=O)c1cccc(C(=O)N2CCC[C@H]2C(=O)C2CCCC2)c1` to `N#C[C@@H]1CCCN1C(=O)[C@@H]1CCCN1C(=O)c1cccc(C(=O)N2CCC[C@H]2C(=O)C2CCCC2)c1`, the IC50 rises from 0.61 nM to 1.1 nM (1.8-fold). The first is the more potent here.

Compared with `O=C([C@@H]1CCCN1C(=O)c1ccc(C(=O)N2CCC[C@H]2C(=O)N2CCCC2)cc1)N1CCCC1`, `O=C([C@@H]1CCCN1C(=O)c1cccc(C(=O)N2CCC[C@H]2C(=O)N2CCCC2)c1)N1CCCCCC1` is 3.5-fold lower in IC50: 81 nM for the first, 23 nM for the second. The second is the more potent here.

Going from `O=C(CCC(=O)N1CCC[C@H]1C(=O)N1CCCC1)N1CCCC1` to `O=C(CCC(=O)N1CCC[C@H]1C(=O)N1CCCC1)N1CCCCCC1`, the IC50 falls from 110 nM to 41 nM (2.7-fold).

First: N#C[C@@H]1CCCN1C(=O)[C@@H]1CCCN1C(=O)c1cccc(C(=O)N2CCCCCC2)c1
Second: N#C[C@@H]1CCCN1C(=O)[C@@H]1CCCN1C(=O)c1cccc(C(=O)N2CCCC2)c1
The IC50 of the first is 1.5-fold lower: 4.6 nM for the first, 6.9 nM for the second. The first is the more potent here.

First: N#C[C@@H]1CCCN1C(=O)[C@@H]1CCCN1C(=O)CCCC(=O)N1CCCCCC1
Second: N#C[C@@H]1CCCN1C(=O)[C@@H]1CCCN1C(=O)CCC(=O)N1CCCCCC1
The IC50 of the first is 1.6-fold higher: 1.2 nM for the first, 0.76 nM for the second. The second is the more potent here.

First: CC(=O)[C@@H]1CCCN1C(=O)c1cccc(C(=O)N2CCC[C@H]2C(=O)N2CCC[C@H]2C(=O)CO)c1
Second: CC(=O)[C@@H]1CCCN1C(=O)c1cccc(C(=O)N2CCC[C@H]2C(=O)N2CCCC2)c1
The IC50 of the first is 54-fold lower: 1.2 nM for the first, 65 nM for the second. The first is the more potent here.

Going from `N#C[C@@H]1CCCN1C(=O)[C@@H]1CCCN1C(=O)c1ccccc1C(=O)N1CCCC1` to `N#C[C@@H]1CCCN1C(=O)[C@@H]1CCCN1C(=O)c1ccc(C(=O)N2CCCC2)cc1`, the IC50 falls from 1500 nM to 1.6 nM (940-fold).

`O=C([C@@H]1CCCN1C(=O)CCCCC(=O)N1CCC[C@H]1C(=O)N1CCCC1)N1CCCC1` and `O=C([C@@H]1CCCN1C(=O)CCC(=O)N1CCC[C@H]1C(=O)N1CCCC1)N1CCCC1` are within 1.5-fold of each other in IC50: 68 nM for the first, 77 nM for the second.

First: O=C(C1CCCC1)[C@@H]1CCCN1C(=O)c1cccc(C(=O)N2CCC[C@H]2C(=O)N2CCCC2)c1
Second: N#C[C@@H]1CCCN1C(=O)[C@@H]1CCCN1C(=O)c1cccc(C(=O)N2CCC[C@H]2C(=O)C2CCCCC2)c1
The IC50 of the first is 19-fold higher: 14 nM for the first, 0.72 nM for the second. The second is the more potent here.

Going from `CC(C)(C)OC(=O)N1CCN(C(=O)[C@@H]2CCCN2C(=O)c2cccc(C(=O)N3CCC[C@H]3C(=O)N3CCCC3)c2)CC1` to `O=C([C@@H]1CCCN1C(=O)c1cccc(C(=O)N2CCC[C@H]2C(=O)N2CCNCC2)c1)N1CCCC1`, the IC50 falls from 170 nM to 33 nM (5.2-fold). The second is the more potent here.

Compared with `O=C(N[C@@H](Cc1ccccc1)C(=O)N1CCCC1)c1cccc(C(=O)N[C@@H](Cc2ccccc2)C(=O)N2CCCC2)c1`, `N#C[C@@H]1CCCN1C(=O)[C@@H]1CCCN1C(=O)c1cccc(C(=O)N2CCC[C@H]2C(=O)c2ccccc2)c1` is 62-fold lower in IC50: 81 nM for the first, 1.3 nM for the second.

First: O=C(CO)[C@@H]1CCCN1C(=O)[C@@H]1CCCN1C(=O)CCCc1ccccc1
Second: N#C[C@@H]1CCCN1C(=O)[C@@H]1CCCN1C(=O)c1ccccc1
The IC50 of the first is 14-fold lower: 0.22 nM for the first, 3.1 nM for the second.

Going from `N#C[C@@H]1CCCN1C(=O)[C@@H]1CCCN1C(=O)CCC(=O)N1CCCC1` to `CC(C)(CC(=O)N1CCCCCC1)CC(=O)N1CCC[C@H]1C(=O)N1CCC[C@H]1C#N`, the IC50 falls from 2.9 nM to 0.39 nM (7.4-fold).

Going from `O=C(CCC(=O)N1CCC[C@H]1C(=O)N1CCCC1)N1CCOCC1` to `O=C(c1ccccc1C(=O)N1CCC[C@H]1C(=O)N1CCCC1)N1CCCC1`, the IC50 rises from 1200 nM to 19000 nM (16-fold). The first is the more potent here.
